From patent publication US11311522B1 (Cavion, Inc., priority 2018, dated 2022)
Read-outs that look alike come from different tables or passages of the source.

How the values were obtained:
[1] = target: T1, breast cancer resistance protein (BCRP) (Homo sapiens, UniProt Q9UNQ0); assay: BCRP transport; type: in vitro ADME
T1 sequence (Q9UNQ0 1-655): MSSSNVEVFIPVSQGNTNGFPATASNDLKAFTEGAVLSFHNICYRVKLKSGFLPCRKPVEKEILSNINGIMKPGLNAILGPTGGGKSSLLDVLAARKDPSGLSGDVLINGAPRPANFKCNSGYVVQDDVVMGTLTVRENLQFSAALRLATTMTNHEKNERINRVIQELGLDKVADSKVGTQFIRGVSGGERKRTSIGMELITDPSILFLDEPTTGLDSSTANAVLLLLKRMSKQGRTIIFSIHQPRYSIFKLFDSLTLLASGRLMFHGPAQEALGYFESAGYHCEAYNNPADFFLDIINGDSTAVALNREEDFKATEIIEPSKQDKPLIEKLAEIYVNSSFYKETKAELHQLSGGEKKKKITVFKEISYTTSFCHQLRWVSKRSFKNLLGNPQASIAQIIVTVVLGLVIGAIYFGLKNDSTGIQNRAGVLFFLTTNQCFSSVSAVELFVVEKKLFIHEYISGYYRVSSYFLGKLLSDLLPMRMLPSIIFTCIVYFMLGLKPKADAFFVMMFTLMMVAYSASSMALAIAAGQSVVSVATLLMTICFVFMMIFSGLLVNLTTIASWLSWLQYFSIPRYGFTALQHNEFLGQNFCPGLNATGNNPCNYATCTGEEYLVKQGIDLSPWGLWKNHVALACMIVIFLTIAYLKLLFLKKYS
Excerpt: (§1) Glucuronide conjugates of the oxygenated metabolites are detected in human, monkey, and dog hepatocyte preparations. […] However, the abundance of CYP3A5, CYP2C19, and CYP2D6 in human liver microsomes is low (2%-5%) relative to the primary contributors, CYP3A4 (˜30%) and CYP2C9 (˜20%). […] Information on reproductive and developmental toxicology was obtained in a 28-day pivotal female fertility study in rats and in preliminary embryo-fetal development studies in rats and rabbits.

[2] = 90-day oral toxicology in Beagle dogs; conditions: Beagle, dog, in vivo, po
Pharmacokinetics in dogs = type: in vivo, dog; conditions: for AUC: male, dog, plasma, po, 0.5 mg/kg, read-out: AUC24
Description: (§3) The validity and reproducibility of the assays were determined, and the precision and accuracy for calibration standards and quality control samples were examined. […] The analytes were stable in plasma under the storage and assay conditions. […] Assay performances were satisfactory and met acceptance criteria for system performance suitability, quantitation range, calibration linearity, assay accuracy and precision, and assay recovery.

[3] = Crossover bioavailability study IR vs MR1 vs MR2 capsules: PK; set-up: AUC72hr: unit not given beside the values; conditions: for Tmax / AUC72hr / Cmax: plasma; for AUC72hr Ratio / Cmax Ratio: metabolite to CX-8998
[4] = 4-week oral toxicology in Beagle dogs; conditions: dog, in vivo
[5] = In vitro plasma protein binding, monkey; type: in vitro ADME
Excerpt: (§2) CX-8998 distributes readily to the brain in rats and to brain and cerebral spinal fluid (CSF) in dogs.

[6] = In vitro plasma protein binding, rat; type: in vitro ADME
Excerpt: as §2

Cav3.3 = target: T2, Cav3.3 (Homo sapiens, UniProt Q9P0X4); assay: Cav3.3 FLIPR calcium influx assay (HEK 293 cells); type: cell-based; conditions: for IC50: Cav3.3 FLIPR assay; for State dependence: hyperpolarized versus depolarized FLIPR potency
T2 construct: expressed in transfected cells; host or cells: HEK 293
T2 sequence (Q9P0X4 whole entry, species assumed): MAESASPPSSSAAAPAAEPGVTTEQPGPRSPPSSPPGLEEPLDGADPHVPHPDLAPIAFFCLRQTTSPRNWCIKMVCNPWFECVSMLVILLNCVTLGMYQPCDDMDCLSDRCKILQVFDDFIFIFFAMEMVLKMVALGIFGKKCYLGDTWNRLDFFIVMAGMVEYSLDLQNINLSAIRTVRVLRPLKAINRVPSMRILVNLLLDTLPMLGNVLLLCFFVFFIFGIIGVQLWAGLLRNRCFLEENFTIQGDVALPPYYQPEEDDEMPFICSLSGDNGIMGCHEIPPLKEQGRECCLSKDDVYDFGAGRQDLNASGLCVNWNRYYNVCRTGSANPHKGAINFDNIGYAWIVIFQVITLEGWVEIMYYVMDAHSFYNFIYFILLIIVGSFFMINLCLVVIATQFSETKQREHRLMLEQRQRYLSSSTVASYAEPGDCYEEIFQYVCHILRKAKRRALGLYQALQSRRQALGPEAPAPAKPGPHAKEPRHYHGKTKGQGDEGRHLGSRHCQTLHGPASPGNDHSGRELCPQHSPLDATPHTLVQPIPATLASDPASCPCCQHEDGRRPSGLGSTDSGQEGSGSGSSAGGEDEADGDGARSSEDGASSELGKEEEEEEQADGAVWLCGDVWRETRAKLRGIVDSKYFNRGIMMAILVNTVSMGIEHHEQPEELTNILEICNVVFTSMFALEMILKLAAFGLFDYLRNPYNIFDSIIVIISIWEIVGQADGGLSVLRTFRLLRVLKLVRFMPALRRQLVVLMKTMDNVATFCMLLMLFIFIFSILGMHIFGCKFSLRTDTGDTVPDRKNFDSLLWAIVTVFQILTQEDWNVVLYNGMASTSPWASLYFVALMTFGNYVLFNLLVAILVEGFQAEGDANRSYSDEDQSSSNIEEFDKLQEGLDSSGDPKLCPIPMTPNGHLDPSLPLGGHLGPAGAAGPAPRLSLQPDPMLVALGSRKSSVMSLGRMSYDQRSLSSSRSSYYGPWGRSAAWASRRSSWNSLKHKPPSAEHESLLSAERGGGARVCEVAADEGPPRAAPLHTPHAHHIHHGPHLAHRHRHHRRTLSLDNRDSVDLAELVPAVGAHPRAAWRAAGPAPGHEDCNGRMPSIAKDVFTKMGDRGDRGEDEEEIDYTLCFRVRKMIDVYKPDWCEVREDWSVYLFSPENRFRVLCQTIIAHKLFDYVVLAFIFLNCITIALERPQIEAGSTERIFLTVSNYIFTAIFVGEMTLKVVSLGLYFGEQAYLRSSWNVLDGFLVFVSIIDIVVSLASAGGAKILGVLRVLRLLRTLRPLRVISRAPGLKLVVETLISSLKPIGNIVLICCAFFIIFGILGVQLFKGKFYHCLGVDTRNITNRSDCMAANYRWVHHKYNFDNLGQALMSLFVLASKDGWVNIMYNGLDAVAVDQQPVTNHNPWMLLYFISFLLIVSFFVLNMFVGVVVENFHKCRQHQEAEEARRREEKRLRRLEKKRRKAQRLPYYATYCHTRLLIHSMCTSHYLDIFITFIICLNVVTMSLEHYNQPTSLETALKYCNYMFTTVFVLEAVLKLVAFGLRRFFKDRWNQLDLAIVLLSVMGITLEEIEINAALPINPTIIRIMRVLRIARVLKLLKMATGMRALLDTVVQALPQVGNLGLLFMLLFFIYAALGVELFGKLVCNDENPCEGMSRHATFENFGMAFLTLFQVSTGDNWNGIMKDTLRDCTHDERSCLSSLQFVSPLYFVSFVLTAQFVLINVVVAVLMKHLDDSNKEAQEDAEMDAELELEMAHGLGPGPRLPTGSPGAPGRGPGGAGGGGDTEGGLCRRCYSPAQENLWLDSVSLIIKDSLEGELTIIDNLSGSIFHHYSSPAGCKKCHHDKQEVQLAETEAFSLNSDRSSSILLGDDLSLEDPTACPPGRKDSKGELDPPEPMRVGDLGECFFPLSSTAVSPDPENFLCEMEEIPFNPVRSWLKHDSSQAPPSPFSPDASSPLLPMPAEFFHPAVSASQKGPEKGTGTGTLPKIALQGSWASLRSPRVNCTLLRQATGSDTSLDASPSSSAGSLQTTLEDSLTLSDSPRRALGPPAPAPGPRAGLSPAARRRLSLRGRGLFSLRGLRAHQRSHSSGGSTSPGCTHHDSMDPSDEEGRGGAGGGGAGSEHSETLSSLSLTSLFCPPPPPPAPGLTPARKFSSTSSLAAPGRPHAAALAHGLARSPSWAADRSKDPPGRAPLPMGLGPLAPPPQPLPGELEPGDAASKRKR

[7] = system: CYP1A2, CYP3A4, CYP2C8, CYP2C9, CYP2C19, CYP2D6, CYP2B6; assay: CYP inhibition in human liver microsomes; type: in vitro ADME
[8] = system: T3, CYP1A2, CYP3A4, CYP2C8, CYP2C9, CYP2C19, CYP2D6; assay: CYP inhibition in human liver microsomes; type: in vitro ADME; conditions: human liver microsomes
T3 construct: IC50, CYP1A2, CYP3A4, CYP2C8, CYP2C9, CYP2C19, CYP2D6; other: human liver microsomes

[9] = Phase 1 single-dose pharmacokinetics (PN001, PN002/Part I, PN003, PN005); type: in vivo, human; conditions: 8 mg CX-8998
[10] = for Day 90 Free Margin for AUC24 at NOAEL for Dog 90-Day Toxicology / Day 90 Free Plasma AUC24 at NOAEL for Dog 90-Day Toxicology: Beagle; for Day 90 Free Plasma AUC24 at NOAEL for Dog 90-Day Toxicology: 30 mg/kg/day; for Day 90 Free Plasma AUC24 at NOAEL for Rat 90-Day Toxicology: 300 mg/kg/day
in vivo = conditions: rat, po
P-glycoprotein = P-glycoprotein bidirectional transport; type: in vitro ADME, human, monkey, and rat
Excerpt: as §1

[11] = In vitro plasma protein binding, dog; type: in vitro ADME
Excerpt: as §2

[12] = Pharmacokinetics in rhesus monkeys; type: in vivo, rhesus monkey; conditions: for AUC: male, rhesus monkey, plasma, po, 2 mg/kg, read-out: AUC24
Description: as §3

[13] = following a single 8 mg dose of MR1 CX-8998
[14] = following a single 8 mg dose of MR2 CX-8998
[15] = rat plasma, read-out: In vitro plasma protein binding (converted)
[16] = depolarized, read-out: Depolarized FLIPR potency
[17] = hyperpolarized, read-out: Hyperpolarized FLIPR potency
[18] = dog plasma, read-out: In vitro plasma protein binding (converted)
[19] = read-out: Free fraction in dog plasma
[20] = single 8 mg dose of MR1 CX-8998
[21] = single 8 mg dose of MR2 CX-8998

For `C[C@@H](NC(=O)Cc1ccc(C(C)(C)O)cc1)c1ccc(OCC(F)(F)F)cn1` [M02], the “Inhibition of BCRP-mediated transport” value ([1]; up to 30 μM) was “did not inhibit”, the AUC ([2]; female, 10 mg/kg) was 103 µM·h and the AUC ([2]; female, 30 mg/kg) was 209 µM·h. It also gave an AUC ([2]; female, 100 mg/kg/day) of 339 µM·h, an AUC ([2]; male, 10 mg/kg) of 149 µM·h and an AUC ([2]; male, 30 mg/kg) of 213 µM·h. The AUC ([2]; male, 100 mg/kg/day) was 1800 µM·h, the AUC (Pharmacokinetics in dogs) was 7.8 µM·h and the Tmax ([3]; following a single 8 mg dose of IR CX-8998) was 5 h. It also gave an AUC72hr [3, 13] of 3343, a Cmax [3, 13] of 94 nM and a Tmax [3, 13] of 11 h. It also gave an AUC72hr [3, 14] of 3142, a Cmax [3, 14] of 73 nM and a Tmax [3, 14] of 16 h. The “Safety margin (AUC24) at the NOEL over expected clinical exposure” value [4] was ~23 fold, the fraction unbound [5] was 0.17 and the fraction unbound [6, 15] was 0.29. For the same compound, the fraction unbound ([6]; rats, read-out: free fraction) was 0.29, the IC50 (Cav3.3; [16]) was 17 nM and the IC50 (Cav3.3; [17]) was 2840 nM. For the same compound, the State dependence (Cav3.3) was 166 fold, the “Time-dependent inhibition of CYP3A4 or CYP2B6” value [7] was “insignificant” and the IC50 [8] was > 20000 nM. The “AUCinf, middle-aged and elderly female vs male subjects” value [9] was 11% lower, the “Cmax, middle-aged and elderly female vs male subjects” value [9] was 2% higher and the “Day 90 Free Margin for AUC24 at NOAEL for Rat 90-Day Toxicology” value ([10]; Female rats vs human 10 mg BID) was 129. For the same compound, the “Day 90 Free Margin for Cmax at NOAEL for Rat 90-Day Toxicology” value ([10]; Male rats vs human 10 mg BID (fed)) was 117, the “Day 90 Free Margin for AUC24 at NOAEL for Dog 90-Day Toxicology” value ([10]; female) was 33 and the “Day 90 Free Plasma AUC24 at NOAEL for Dog 90-Day Toxicology” value ([10]; female) was 37,620 nM · hr. For the same compound, the “Day 90 Free Plasma AUC24 at NOAEL for Rat 90-Day Toxicology” value ([10]; female, rat) was 148,190 nM · hr, the “Day 90 Free Margin for AUC24 at NOAEL for Dog 90-Day Toxicology” value ([10]; male) was 33 and the “Day 90 Free Plasma AUC24 at NOAEL for Dog 90-Day Toxicology” value ([10]; male) was 38,340 nM · hr. For the same compound, the “Day 90 Free Margin for AUC24 at NOAEL for Rat 90-Day Toxicology” value ([10]; male, rat) was 65, the “Day 90 Free Plasma AUC24 at NOAEL for Rat 90-Day Toxicology” value ([10]; male, rat) was 74,820 nM · hr and the AUC (in vivo; female, 5 mg/kg) was 16.7 µM·h. The AUC (in vivo; female, 15 mg/kg) was 54.8 µM·h, the AUC (in vivo; female, 100 mg/kg) was 567 µM·h and the AUC (in vivo; female, 300 mg/kg) was 511 µM·h. It also gave an AUC (in vivo; male, 5 mg/kg) of 12 µM·h, an AUC (in vivo; male, 15 mg/kg) of 26.1 µM·h and an AUC (in vivo; male, 100 mg/kg) of 186 µM·h. For the same compound, the AUC (in vivo; male, 300 mg/kg) was 258 µM·h, the “P-glycoprotein substrate or inhibitor activity” value (P-glycoprotein) was “showed increased efflux in the rat and monkey assays” and the fraction unbound [11, 18] was 0.18. It also gave a fraction unbound ([11]; dogs, read-out: free fraction) of 0.18, a fraction unbound [11, 19] of 0.18 and an AUC [12] of 36.6 µM·h.
With `C=C(C)c1ccc(CC(=O)N[C@H](C)c2ccc(OCC(F)(F)F)cn2)cc1` [M01] the “Inhibition of BCRP transport” value ([1]; 30 μM) was 57%, the AUC ([2]; female, 10 mg/kg) was 38.6 µM·h and the AUC ([2]; female, 30 mg/kg) was 103 µM·h. For the same compound, the AUC ([2]; female, 100 mg/kg/day) was 431 µM·h, the AUC ([2]; male, 10 mg/kg) was 54.9 µM·h and the AUC ([2]; male, 30 mg/kg) was 121 µM·h. For the same compound, the AUC ([2]; male, 100 mg/kg/day) was 1770 µM·h, the “Ratio of AUC24 (metabolite/CX-8998)” value (Pharmacokinetics in dogs; Dog, Male, single oral dose 0.5 mg/kg of CX-8998) was 0.21 and the AUC (Pharmacokinetics in dogs) was 1.4 µM·h. The “AUC72hr Ratio” value ([3]; single 8 mg dose of IR CX-8998) was 0.92, the “Cmax Ratio” value ([3]; single 8 mg dose of IR CX-8998) was 0.14 and the “AUC72hr Ratio” value [3, 20] was 0.95. The “Cmax Ratio” value [3, 20] was 0.27, the “AUC72hr Ratio” value [3, 21] was 0.90 and the “Cmax Ratio” value [3, 21] was 0.35. For the same compound, the AUC72hr [3, 13] was 7118, the Cmax [3, 13] was 121 nM and the Tmax [3, 13] was 26 h. The AUC72hr [3, 14] was 6395, the Cmax [3, 14] was 113 nM and the Tmax [3, 14] was 39 h. For the same compound, the “Safety margin (AUC24) at the NOEL over expected clinical exposure” value [4] was ~6 fold, the fraction unbound [5] was 0.004 and the fraction unbound [6, 15] was 0.004. The fraction unbound ([6]; rats, read-out: free fraction) was 0.004, the IC50 (Cav3.3; [16]) was 2.3 nM and the IC50 (Cav3.3; [17]) was 86 nM. For the same compound, the State dependence (Cav3.3) was 37 fold, the “Time-dependent inhibition of CYP3A4 or CYP2B6” value [7] was “insignificant” and the IC50 [8] was > 20000 nM. For the same compound, the “AUCinf, middle-aged and elderly female vs male subjects” value [9] was 2% lower, the “Cmax, middle-aged and elderly female vs male subjects” value [9] was 12% lower and the “Day 90 Free Margin for AUC24 at NOAEL for Dog 90-Day Toxicology” value ([10]; female) was >16. The “Day 90 Free Plasma AUC24 at NOAEL for Dog 90-Day Toxicology” value ([10]; female) was <309 nM · hr, the “Day 90 Free Margin for AUC24 at NOAEL for Rat 90-Day Toxicology” value ([10]; female, rat) was >49 and the “Day 90 Free Plasma AUC24 at NOAEL for Rat 90-Day Toxicology” value ([10]; female, rat) was <936 nM · hr. The “Day 90 Free Margin for AUC24 at NOAEL for Dog 90-Day Toxicology” value ([10]; male) was >19, the “Day 90 Free Plasma AUC24 at NOAEL for Dog 90-Day Toxicology” value ([10]; male) was <363 nM · hr and the “Day 90 Free Margin for AUC24 at NOAEL for Rat 90-Day Toxicology” value ([10]; male, rat) was >26. The “Day 90 Free Plasma AUC24 at NOAEL for Rat 90-Day Toxicology” value ([10]; male, rat) was <500 nM · hr, the AUC (in vivo; female, 5 mg/kg) was 5.02 µM·h and the AUC (in vivo; female, 15 mg/kg) was 20.3 µM·h. For the same compound, the AUC (in vivo; female, 100 mg/kg) was 231 µM·h, the AUC (in vivo; female, 300 mg/kg) was 234 µM·h and the AUC (in vivo; male, 5 mg/kg) was 4.33 µM·h. The AUC (in vivo; male, 15 mg/kg) was 11.3 µM·h, the AUC (in vivo; male, 100 mg/kg) was 85.9 µM·h and the AUC (in vivo; male, 300 mg/kg) was 125 µM·h. For the same compound, the “P-glycoprotein substrate or inhibitor activity” value (P-glycoprotein) was “did not demonstrate any activity as a substrate or inhibitor”, the fraction unbound [11, 18] was 0.003 and the fraction unbound ([11]; dogs, read-out: free fraction) was 0.003. The fraction unbound [11, 19] was 0.003, the “Ratio of AUC24 (metabolite/CX-8998)” value ([12]; Monkey, Male, single oral dose 2 mg/kg of CX-8998) was 0.24 and the AUC [12] was 0.5 µM·h.
